This assay relates to P388 leukemia ip, CD2F1 mice, survival T/C. Description: NCI In Vivo Anticancer Drug Screen. Data for tumor model P388 Leukemia (intraperitoneal) in CD2F1 (CDF1) mice. The conditions noted are these: endpoint: median survival time, higher = longer survival. The gist of the method:
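Mice carrying the transplanted tumor received test compound or vehicle. Survival was recorded in each group, and the value is the treated-group measurement divided by that of the vehicle-treated control group.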

Where [1] appears, read: dose: 200.0 mg/kg/injection, schedule: Q04DX003 (ip), vehicle: Klucel (hydroxypropylcellulose) (HPC).
The mark [2] stands for this setting: dose: 400.0 mg/kg/injection, schedule: Q04DX003 (ip), vehicle: Klucel (hydroxypropylcellulose) (HPC).
[3] abbreviates: dose: 60.0 mg/kg/injection, schedule: Q01DX005 (ip), vehicle: saline.
The mark [4] stands for this setting: dose: 120.0 mg/kg/injection, schedule: Q01DX005 (ip), vehicle: saline.
Setting [5] is: dose: 240.0 mg/kg/injection, schedule: Q01DX005 (ip), vehicle: saline.
[6] abbreviates: dose: 50.0 mg/kg/injection, schedule: Q01DX005 (ip), vehicle: saline with Tween-80.
Where [7] appears, read: dose: 50.0 mg/kg/injection, schedule: Q01DX009 (ip), vehicle: saline with Tween-80.
The mark [8] stands for this setting: dose: 100.0 mg/kg/injection, schedule: Q01DX009 (ip), vehicle: saline with Tween-80.
The mark [9] stands for this setting: dose: 100.0 mg/kg/injection, schedule: Q04DX003 (ip), vehicle: saline with Tween-80.
[10] abbreviates: dose: 200.0 mg/kg/injection, schedule: Q01DX009 (ip), vehicle: saline with Tween-80.
Setting [11] is: dose: 50.0 mg/kg/injection, schedule: Q01DX005 (ip), vehicle: Klucel (hydroxypropylcellulose) (HPC).
Setting [12] is: dose: 100.0 mg/kg/injection, schedule: Q01DX005 (ip), vehicle: Klucel (hydroxypropylcellulose) (HPC).
Setting [13] is: dose: 200.0 mg/kg/injection, schedule: Q01DX005 (ip), vehicle: Klucel (hydroxypropylcellulose) (HPC).
Where [14] appears, read: dose: 50.0 mg/kg/injection, schedule: Q01DX005 (ip), vehicle: saline.
The mark [15] stands for this setting: dose: 100.0 mg/kg/injection, schedule: Q01DX005 (ip), vehicle: saline.
The mark [16] stands for this setting: dose: 200.0 mg/kg/injection, schedule: Q01DX005 (ip), vehicle: saline.

Several values for one entry are separate records, joined by “and”; a condition that tells them apart may be missing. Equal entries are not always repeated. Inconclusive results and toxic doses are left out. Peptide text beside a SMILES is read from it.

In the case of `CCCCc1c(C(=O)OCC)oc(C(=O)OCC)c(CCCC)c1=O`, the T/C is, setting by setting: (dose: 12.5 mg/kg/injection, schedule: Q04DX003 (ip), vehicle: Klucel (hydroxypropylcellulose) (HPC)) 108 % of control; (dose: 25.0 mg/kg/injection, schedule: Q04DX003 (ip), vehicle: Klucel (hydroxypropylcellulose) (HPC)) 104 % of control; (dose: 50.0 mg/kg/injection, schedule: Q04DX003 (ip), vehicle: Klucel (hydroxypropylcellulose) (HPC)) 103 % of control; (dose: 100.0 mg/kg/injection, schedule: Q04DX003 (ip), vehicle: Klucel (hydroxypropylcellulose) (HPC)) 100 % of control; under setting [1], 104 % of control; under setting [2], 106 % of control.
With `N#CCCC12CCC(=O)N1Cc1ccccc1C2=O` (centres undefined), the T/C under setting [3] is 105 % of control, the T/C under setting [4] was 123 % of control and the T/C under setting [5] is 123 % of control.
Consider `CCCC1N=C(N)N=C(N)N1c1ccc(OC)cc1` (centres undefined), for which the T/C is, setting by setting: (dose: 12.5 mg/kg/injection, schedule: Q01DX005 (ip), vehicle: saline with Tween-80) 100 % of control; (dose: 25.0 mg/kg/injection, schedule: Q01DX005 (ip), vehicle: saline with Tween-80) 103 % of control; under setting [6], 101 % of control and 106 % of control.
As to `CC(CN(C)C)C(=O)/C=C/c1ccc(Cl)cc1` (centres undefined), the T/C runs as follows: under setting [3], 118 % of control; under setting [4], 122 % of control.
Consider `O=C1CN(/N=C\c2ccc([N+](=O)[O-])o2)C(=O)N1`, for which the T/C runs as follows: (dose: 25.0 mg/kg/injection, schedule: Q01DX009 (ip), vehicle: saline with Tween-80) 100 % of control; (dose: 25.0 mg/kg/injection, schedule: Q04DX003 (ip), vehicle: saline with Tween-80) 110 % of control; under setting [7], 100 % of control; (dose: 50.0 mg/kg/injection, schedule: Q04DX003 (ip), vehicle: saline with Tween-80) 110 % of control; under setting [8], 109 % of control; under setting [9], 105 % of control.
Take `C=C(OC(=O)CN(C)C)c1ccccc1`: the T/C was 98 % of control under setting [9]; 100 % of control (dose: 200.0 mg/kg/injection, schedule: Q04DX003 (ip), vehicle: saline with Tween-80); 94 % of control (dose: 400.0 mg/kg/injection, schedule: Q04DX003 (ip), vehicle: saline with Tween-80).
As for `COC(=O)C1CCCN1` (centres undefined), the T/C under setting [3] is 105 % of control, the T/C under setting [4] was 111 % of control and the T/C under setting [5] is 104 % of control.
Regarding `O=S(=O)(O)OCNc1cc(F)cc(F)c1`, the T/C reads like this: (dose: 50.0 mg/kg/injection, schedule: Q01DX009 (ip), vehicle: saline) 96 % of control; (dose: 100.0 mg/kg/injection, schedule: Q01DX009 (ip), vehicle: saline) 99 % of control; (dose: 200.0 mg/kg/injection, schedule: Q01DX009 (ip), vehicle: saline) 101 % of control.
Consider `O=C1C=C(c2ccccc2)S(=O)(=O)c2c(O)cccc21`, for which the T/C is, setting by setting: under setting [6], 121 % of control; (dose: 100.0 mg/kg/injection, schedule: Q01DX005 (ip), vehicle: saline with Tween-80) 119 % of control; (dose: 200.0 mg/kg/injection, schedule: Q01DX005 (ip), vehicle: saline with Tween-80) 118 % of control.
As to `CCN(CC)c1ccc(C(=C2C=CC(=[N+](CC)CC)C=C2)c2ccc(N(CC)CC)cc2)cc1`, the T/C under setting [6] is 113 % of control and 120 % of control.
In the case of `CC12CCC(O)CC1CCC1C2CCC2(C)C(c3ccc(=O)oc3)CC3OC312` (centres undefined), the T/C is, setting by setting: (dose: 0.31 mg/kg/injection, schedule: Q01DX009 (ip), vehicle: saline with Tween-80) 108 % of control; (dose: 0.62 mg/kg/injection, schedule: Q01DX009 (ip), vehicle: saline with Tween-80) 100 % of control; (dose: 1.25 mg/kg/injection, schedule: Q01DX009 (ip), vehicle: saline with Tween-80) 104 % of control; (dose: 2.5 mg/kg/injection, schedule: Q01DX009 (ip), vehicle: saline with Tween-80) 115 % of control; (dose: 5.0 mg/kg/injection, schedule: Q01DX009 (ip), vehicle: saline with Tween-80) 100 % of control and 87 % of control; (dose: 10.0 mg/kg/injection, schedule: Q01DX009 (ip), vehicle: saline with Tween-80) 87 % of control. Further, the T/C (dose: 20.0 mg/kg/injection, schedule: Q01DX009 (ip), vehicle: saline with Tween-80) is 88 % of control.
Turning to `C=C/C(C)=C\CC/C(C)=C/c1cc(C(=O)O)co1`, the T/C was 104 % of control (dose: 4.0 mg/kg/injection, schedule: Q01DX009 (ip), vehicle: Klucel (hydroxypropylcellulose) (HPC)); 100 % of control (dose: 8.0 mg/kg/injection, schedule: Q01DX009 (ip), vehicle: Klucel (hydroxypropylcellulose) (HPC)); 99 % of control (dose: 16.0 mg/kg/injection, schedule: Q01DX009 (ip), vehicle: Klucel (hydroxypropylcellulose) (HPC)); 100 % of control (dose: 32.0 mg/kg/injection, schedule: Q01DX009 (ip), vehicle: Klucel (hydroxypropylcellulose) (HPC)).
As to `O=C(NC1CCCCC1)O/N=C/c1cccnc1`, the T/C was 101 % of control under setting [7], 98 % of control under setting [8] and 93 % of control under setting [10].
Consider `O=C1NC(=O)/C(=C2\CCOC2=O)N1`, for which the T/C is, setting by setting: under setting [7], 100 % of control; under setting [8], 94 % of control; under setting [10], 100 % of control.
For the molecule `NC(=O)c1[nH]cnc1/N=N/N(CCCl)Cc1ccccc1`, the T/C runs as follows: (dose: 44.0 mg/kg/injection, schedule: Q01DX009 (ip), vehicle: Klucel (hydroxypropylcellulose) (HPC)) 122 % of control; (dose: 100.0 mg/kg/injection, schedule: Q01DX009 (ip), vehicle: Klucel (hydroxypropylcellulose) (HPC)) 196 % of control; (dose: 150.0 mg/kg/injection, schedule: Q01DX009 (ip), vehicle: Klucel (hydroxypropylcellulose) (HPC)) 196 % of control; under setting [1], 182 % of control; under setting [2], 256 % of control.
In the case of `C=C1C(=O)O[C@@H]2C[C@H](C)[C@@H]3CC[C@H](O)[C@@]3(CO)C[C@H]12`, the T/C runs as follows: (dose: 12.5 mg/kg/injection, schedule: Q01DX005 (ip), vehicle: Klucel (hydroxypropylcellulose) (HPC)) 102 % of control; (dose: 25.0 mg/kg/injection, schedule: Q01DX005 (ip), vehicle: Klucel (hydroxypropylcellulose) (HPC)) 102 % of control; under setting [11], 103 % of control and 104 % of control; under setting [12], 114 % of control; under setting [13], 122 % of control.
Consider `CC(O)C(N)C(=O)NC(C(=O)NC(C(=O)O)C(C)O)C(C)O` (stereo not drawn) (H-Thr-Thr-Thr-OH; configuration not given here), for which the T/C under setting [14] was 104 % of control, the T/C under setting [15] is 92 % of control and the T/C under setting [16] is 104 % of control.
`CCCCN(CCCC)C(=O)/C(O)=C(\O)C(=O)N(CCCC)CCCC`: the T/C (dose: 25.0 mg/kg/injection, schedule: Q01DX005 (ip), vehicle: saline) is 90 % of control; the T/C under setting [14] was 96 % of control; the T/C under setting [15] was 92 % of control; the T/C under setting [16] is 113 % of control.
Consider `COc1ccc(C2c3cc4c(cc3OC3(N5CCCC5)CCCCC23)OCO4)c(OC)c1` (centres undefined), for which the T/C (dose: 60.0 mg/kg/injection, schedule: Q01DX005 (ip), vehicle: Klucel (hydroxypropylcellulose) (HPC)) was 87 % of control; the T/C (dose: 120.0 mg/kg/injection, schedule: Q01DX005 (ip), vehicle: Klucel (hydroxypropylcellulose) (HPC)) was 90 % of control; the T/C (dose: 240.0 mg/kg/injection, schedule: Q01DX005 (ip), vehicle: Klucel (hydroxypropylcellulose) (HPC)) was 91 % of control.
Consider `COc1ccc(OC)c2cc3c(cc12)C(=O)C(C)=C(C)C3=O`, for which the T/C was 89 % of control under setting [11], 86 % of control under setting [12] and 88 % of control under setting [13].
For `C=COCC(C)C` (tested in a mixture with another compound), the T/C was 108 % of control (dose: 1.56 mg/kg/injection, schedule: Q01DX009 (ip), vehicle: saline with Tween-80); 101 % of control (dose: 3.12 mg/kg/injection, schedule: Q01DX009 (ip), vehicle: saline with Tween-80); 96 % of control (dose: 6.25 mg/kg/injection, schedule: Q01DX009 (ip), vehicle: saline with Tween-80).
Turning to `CCCCCCCCCCCCCCCCNC(=S)N=Nc1cc(C(C)C)c(NNC(=S)NCCCCCCCCCCCCCCCC)cc1C`, the T/C runs as follows: under setting [11], 92 % of control; under setting [12], 99 % of control; under setting [13], 97 % of control.

For the origin of these results see PubChem BioAssay AID330 (DTP/NCI, 2004).
